These results are taken from ChEMBL document CHEMBL3774390, “Azide-enolate 1,3-dipolar cycloaddition in the synthesis of novel triazole-based miconazole analogues as promising antifungal agents” (2016).

Molecules are shown by their SMILES. Values after ≈ are worked out from the molar mass of the structure shown.

What all share (assay type): functional
One experiment has as its system Cyberlindnera jadinii. As to the kind of experiment: Antifungal activity against Candida utilis ATCC 9226 by M27-A3 protocol-based broth microdilution method. As to conditions: Williopsis jadinii.
Another experiment concerns Candida albicans. As to the kind of experiment: Antifungal activity against Candida albicans ATCC 10231 by M27-A3 protocol-based broth microdilution method.
In the next experiment the test system is Candida tropicalis. As to the kind of experiment: Antifungal activity against Candida tropicalis ATCC 13803 by M27-A3 protocol-based broth microdilution method.
In a further experiment the test system is Aspergillus fumigatus. As to the kind of experiment: Antifungal activity against Aspergillus fumigatus ATCC 16907 by M38-A protocol-based broth microdilution method.
Experiment [1] can be described thus: Antifungal activity against Trichosporon cutaneum ATCC 28592 by M38-A protocol-based microdilution method. As to conditions: Cutaneotrichosporon cutaneum.
The subject of another experiment is Rhizopus arrhizus. As to the kind of experiment: Antifungal activity against Rhizopus oryzae ATCC 10329 by M38-A protocol-based microdilution method.
A further experiment relates to Mucor hiemalis. As to the kind of experiment: Antifungal activity against Mucor hiemalis ATCC 8690 by M38-A protocol-based microdilution method.

Regarding `CCCCC(C)(C)c1cnnn1C(Cn1ccnc1)c1ccc(Cl)cc1Cl` (stereo unspecified), the MIC with Cyberlindnera jadinii was found to be 2 µg/mL (≈ 4.92 µM); against Candida albicans it was 0.03 µg/mL (≈ 0.0738 µM); against Candida tropicalis it was 0.03 µg/mL (≈ 0.0738 µM); in the experiment with Aspergillus fumigatus, 0.5 µg/mL (≈ 1.23 µM); in experiment [1] it was 8 µg/mL (≈ 19.7 µM); in the experiment on Rhizopus arrhizus, 8 µg/mL (≈ 19.7 µM). This compound also showed an MIC in the experiment with Mucor hiemalis of 16 µg/mL (≈ 39.4 µM).

For the compound `CSc1ccc(-c2cnnn2C(Cn2ccnc2)c2ccc(Cl)cc2Cl)cc1` (stereo unspecified), the MIC was found to be 16 µg/mL (≈ 37.2 µM) in the experiment on Cyberlindnera jadinii; 4 µg/mL (≈ 9.29 µM) against Candida albicans; 1 µg/mL (≈ 2.32 µM) against Candida tropicalis; 16 µg/mL (≈ 37.2 µM) against Aspergillus fumigatus; 16 µg/mL (≈ 37.2 µM) in experiment [1]; 16 µg/mL (≈ 37.2 µM) against Rhizopus arrhizus. In addition, the lowest concentration to inhibit growth in the experiment with Mucor hiemalis (MIC) was 16 µg/mL (≈ 37.2 µM).

For the compound `CCCCCc1c(S(=O)(=O)c2ccccc2)nnn1C(Cn1ccnc1)c1ccc(Cl)cc1Cl` (stereo unspecified), the MIC was 0.25 µg/mL (≈ 0.482 µM) with Cyberlindnera jadinii; 0.06 µg/mL (≈ 0.116 µM) with Candida albicans; 0.06 µg/mL (≈ 0.116 µM) in the experiment with Candida tropicalis; 2 µg/mL (≈ 3.86 µM) against Aspergillus fumigatus; 0.12 µg/mL (≈ 0.231 µM) in experiment [1]; 0.5 µg/mL (≈ 0.964 µM) against Rhizopus arrhizus. In the experiment with Mucor hiemalis, this compound displayed an MIC of 0.25 µg/mL (≈ 0.482 µM).

For the compound `N#Cc1nnn(C(Cn2ccnc2)c2ccc(Cl)cc2Cl)c1-c1ccccc1` (stereo unspecified), the MIC (against Cyberlindnera jadinii; against Candida albicans; in the experiment with Candida tropicalis; against Aspergillus fumigatus; in experiment [1]; with Rhizopus arrhizus) was 16 µg/mL (≈ 39.1 µM) each time. For the same compound, in the experiment with Mucor hiemalis, the MIC was 16 µg/mL (≈ 39.1 µM).

Turning to `O=C(c1ccccc1)c1nnn(C(Cn2ccnc2)c2ccc(Cl)cc2Cl)c1-c1ccccc1` (stereo unspecified), the MIC with Cyberlindnera jadinii came out at 16 µg/mL (≈ 32.8 µM); in the experiment on Candida albicans it was 0.03 µg/mL (≈ 0.0614 µM); with Candida tropicalis it was 0.06 µg/mL (≈ 0.123 µM); in the experiment on Aspergillus fumigatus it was 16 µg/mL (≈ 32.8 µM); in experiment [1] it was 16 µg/mL (≈ 32.8 µM); against Rhizopus arrhizus, 8 µg/mL (≈ 16.4 µM). In the experiment on Mucor hiemalis, it took 16 µg/mL (≈ 32.8 µM) to inhibit growth (MIC).

With `Clc1ccc(C(Cn2ccnc2)n2nncc2C2CCCCC2)c(Cl)c1` (stereo unspecified), the MIC was found to be 16 µg/mL (≈ 41 µM) against Cyberlindnera jadinii; 16 µg/mL (≈ 41 µM) against Candida albicans; 8 µg/mL (≈ 20.5 µM) with Candida tropicalis; 16 µg/mL (≈ 41 µM) against Aspergillus fumigatus; 16 µg/mL (≈ 41 µM) in experiment [1]; 2 µg/mL (≈ 5.12 µM) with Rhizopus arrhizus. In the experiment with Mucor hiemalis, this compound gave an MIC of 0.12 µg/mL (≈ 0.307 µM).

Regarding `CC(=O)c1nnn(C(Cn2ccnc2)c2ccc(Cl)cc2Cl)c1C` (stereo unspecified), the MIC in the experiment with Cyberlindnera jadinii turned out to be 16 µg/mL (≈ 43.9 µM); against Candida albicans it was 16 µg/mL (≈ 43.9 µM); against Candida tropicalis, 16 µg/mL (≈ 43.9 µM); in the experiment on Aspergillus fumigatus, 16 µg/mL (≈ 43.9 µM); in experiment [1], 16 µg/mL (≈ 43.9 µM); in the experiment with Rhizopus arrhizus it was 8 µg/mL (≈ 22 µM). Also, the MIC with Mucor hiemalis was determined as 16 µg/mL (≈ 43.9 µM).

Regarding `CCC(C)n1ncn(-c2ccc(N3CCN(c4ccc(OCC5COC(Cn6cncn6)(c6ccc(Cl)cc6Cl)O5)cc4)CC3)cc2)c1=O` (stereo unspecified) [ITRACONAZOLE], the MIC is 0.06 µg/mL (≈ 0.085 µM) in the experiment with Cyberlindnera jadinii; 0.03 µg/mL (≈ 0.0425 µM) against Candida albicans; 0.03 µg/mL (≈ 0.0425 µM) in the experiment on Candida tropicalis; 0.25 µg/mL (≈ 0.354 µM) against Aspergillus fumigatus; 1 µg/mL (≈ 1.42 µM) in experiment [1]; 0.5 µg/mL (≈ 0.709 µM) in the experiment on Rhizopus arrhizus. The compound further returned an MIC in the experiment on Mucor hiemalis of 1 µg/mL (≈ 1.42 µM).
